Assay: recombinant barcode read abundance after kanamycin selection (control-corrected) (log10(CPM+1)); higher = more efficient recombination; sequences stand for … in AGTGCAGAGAAAATCGGCCAGTTTTCTCTGCCTGCAGTCCGCATGCCGT…AGATTTATGCAGCGGACTGCCTTTCTCCCAAAGTGATAAACCGGACAGTATCATGGACCGGTTTTCCCGGTAATCCGTATTTGCAAGGTTGGTTTCACT; site = the 11-nt target
Protocol: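 Pooled E. coli target-specificity screen for the IS621 bridge recombinase. Each library plasmid pairs an 11-nt target (CT core) with a bridge RNA whose target-binding loop (9-nt LTG + 4-nt RTG) is reprogrammed; the rest of the 177-nt WT IS621 bridge RNA scaffold is fixed. The plasmid is co-electroporated with a WT donor plasmid; recombinase is induced with 0.1 mM IPTG and recombinants are selected on kanamycin. Recombinant barcodes are sequenced, converted to CPM, averaged over two biological replicates and corrected by the unselected control CPM. Molecule = full bridge RNA written as DNA: LTG = specificity nt 1-9, RTG = reverse complement of specificity nt 8-11, in the WT scaffold.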
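Also: IS621 recombinase and bridge RNA in Escherichia coli cells.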

Sequence	recombinant barcode read abundance (log10)
AAATTGACTTGGGTTCTAACCTGTTGCCT (site AAATTGACTAG)	0.624
AAATTGACTTGGGTTCTAACCTGTTGCCT (site AACTTGACTAG)	0.136
AAATTGACTTGGGTTCTAACCTGTTGCCT (site AAGTTGACTAG)	0.0999
AAATTGACTTGGGTTCTAACCTGTTGCCT (site AATTTGACTAG)	0.0913
AAATTTCCTTGGGTTCTAACCTGTTGCCT (site AAATTTCCTAG)	0.42
AAATTTCCTTGGGTTCTAACCTGTTGCCT (site ACATTTCCTAG)	0.0879
AAATTTCCTTGGGTTCTAACCTGTTGCCT (site AGATTTCCTAG)	0.0553
AAATTTCCTTGGGTTCTAACCTGTTGCCT (site ATATTTCCTAG)	0.123
AACACGTCTTGGGTTCTAACCTGTTGCCT (site AAATCGTCTAG)	0.0544
AACACGTCTTGGGTTCTAACCTGTTGCCT (site AACACGTCTAG)	0.576
AACACTCCTTGGGTTCTAACCTGTTGCTT (site AACACTCCTAA)	0.0689
AACACTCCTTGGGTTCTAACCTGTTGCTT (site AAGACTCCTAA)	0.299
AACAGTTCTTGGGTTCTAACCTGTTGCCT (site AACAGCTCTAG)	0.151
AACAGTTCTTGGGTTCTAACCTGTTGCCT (site AACAGTTCTAG)	0.749
AACCGCCCTTGGGTTCTAACCTGTTGCGT (site AACCGCCCTAC)	2.47
AACCGCCCTTGGGTTCTAACCTGTTGCGT (site AACCGCCCTAG)	0.434
AACCTAGCTTGGGTTCTAACCTGTTGCTA (site AACCTAGCTTA)	0.395
AACCTAGCTTGGGTTCTAACCTGTTGCTA (site ACCCTAGCTGA)	0.0657
AACGCTTCTTGGGTTCTAACCTGTTGCCT (site AACGCTTCTAG)	0.3
AACGCTTCTTGGGTTCTAACCTGTTGCCT (site ACCGCTTCTAG)	0.215
AACGCTTCTTGGGTTCTAACCTGTTGCCT (site AGCGCTTCTAG)	0.0496

Sequence	recombinant barcode read abundance (log10)
AACGCTTCTTGGGTTCTAACCTGTTGCCT (site ATCGCTTCTAG)	0.0246
AACGTACCTTGGGTTCTAACCTGTTGCCA (site AACGTACCTTG)	0.674
AACGTACCTTGGGTTCTAACCTGTTGCCA (site GGTAATACTAT)	0.0669
AACTCTCCTTGGGTTCTAACCTGTTGCAT (site AACTATCCTAT)	0.11
AACTCTCCTTGGGTTCTAACCTGTTGCAT (site AACTCTCCTAT)	0.588
AACTCTCCTTGGGTTCTAACCTGTTGCAT (site AACTGTCCTAT)	0.188
AACTCTCCTTGGGTTCTAACCTGTTGCAT (site AACTTTCCTAT)	0.0336
AACTGATCTTGGGTTCTAACCTGTTGCCT (site AACTAATCTAG)	0.0976
AACTGATCTTGGGTTCTAACCTGTTGCCT (site AACTCATCTAG)	0.0693
AACTGATCTTGGGTTCTAACCTGTTGCCT (site AACTGATCTAG)	0.397
AACTGATCTTGGGTTCTAACCTGTTGCCT (site AACTTATCTAG)	0.038
AACTGGGCTTGGGTTCTAACCTGTTGCCT (site AACTGGGCTAG)	0.252
AACTGGGCTTGGGTTCTAACCTGTTGCCT (site ACCTGGGCTAG)	0.149
AACTGGGCTTGGGTTCTAACCTGTTGCCT (site AGCTGGGCTAG)	0.0923
AACTGGGCTTGGGTTCTAACCTGTTGCCT (site ATCTGGGCTAG)	0.141
AACTGTCCTTGGGTTCTAACCTGTTGCAT (site AACTATCCTAT)	0.106
AACTGTCCTTGGGTTCTAACCTGTTGCAT (site AACTCTCCTAT)	0.0428
AACTGTCCTTGGGTTCTAACCTGTTGCAT (site AACTGTCCTAT)	0.805
AACTGTCCTTGGGTTCTAACCTGTTGCAT (site AACTTTCCTAT)	0.106
AACTTAACTTGGGTTCTAACCTGTTGCCT (site AACTAAACTAG)	0.236
AACTTAACTTGGGTTCTAACCTGTTGCCT (site AACTCAACTAG)	0.0571

Sequence	recombinant barcode read abundance (log10)
AACTTAACTTGGGTTCTAACCTGTTGCCT (site AACTGAACTAG)	0.09
AACTTAACTTGGGTTCTAACCTGTTGCCT (site AACTTAACTAG)	0.531
AACTTCGCTTGGGTTCTAACCTGTTGCCT (site AACTTCACTAG)	0.114
AACTTCGCTTGGGTTCTAACCTGTTGCCT (site AACTTCCCTAG)	0.00931
AACTTCGCTTGGGTTCTAACCTGTTGCCT (site AACTTCGCTAG)	0.423
AACTTCGCTTGGGTTCTAACCTGTTGCCT (site AACTTCTCTAG)	0.269
AACTTGACTTGGGTTCTAACCTGTTGCCT (site AAATTGACTAG)	0.248
AACTTGACTTGGGTTCTAACCTGTTGCCT (site AACTTGACTAG)	0.731
AACTTGACTTGGGTTCTAACCTGTTGCCT (site AAGTTGACTAG)	0.0706
AACTTGACTTGGGTTCTAACCTGTTGCCT (site AATTTGACTAG)	0.232
AAGAACTCTTGGGTTCTAACCTGTTGCCG (site AAGAACTCTCG)	2.1
AAGAACTCTTGGGTTCTAACCTGTTGCCG (site GTTTCAACTAC)	0.0172
AAGATACCTTGGGTTCTAACCTGTTGCTG (site AAGATACCTAA)	0.283
AAGATACCTTGGGTTCTAACCTGTTGCTG (site AAGATACCTCA)	1.76
AAGATATCTTGGGTTCTAACCTGTTGCCT (site AAGATATCTAG)	1.86
AAGATATCTTGGGTTCTAACCTGTTGCCT (site ACGATATCTAG)	0.119
AAGATATCTTGGGTTCTAACCTGTTGCCT (site AGGATATCTAG)	0
AAGATATCTTGGGTTCTAACCTGTTGCCT (site ATGATATCTAG)	0.0647
AAGCACCCTTGGGTTCTAACCTGTTGCAG (site AAGCACCCTCT)	2.59
AAGCACCCTTGGGTTCTAACCTGTTGCAG (site TAGCACTCTCT)	0.311
AAGCACCCTTGGGTTCTAACCTGTTGCTG (site AAGCACCCTCA)	2.02

Sequence	recombinant barcode read abundance (log10)
AAGCACCCTTGGGTTCTAACCTGTTGCTG (site CCTGCGACTGT)	0.276
AAGCCTACTTGGGTTCTAACCTGTTGCTA (site AAGCCTACTTA)	1.27
AAGCCTACTTGGGTTCTAACCTGTTGCTA (site GAGCCTACTTA)	0.0396
AAGGCCTCTTGGGTTCTAACCTGTTGCAT (site AAGGCCTCTAT)	2.93
AAGGCCTCTTGGGTTCTAACCTGTTGCAT (site AAGGCCTCTTG)	0.247
AAGGCTACTTGGGTTCTAACCTGTTGCCT (site AAGGCTACTAG)	0.304
AAGGCTACTTGGGTTCTAACCTGTTGCCT (site AAGGCTTCTAG)	0.144
AAGGTACCTTGGGTTCTAACCTGTTGCGG (site AAGGTACCTCC)	2.69
AAGGTACCTTGGGTTCTAACCTGTTGCGG (site GTCACTACTAT)	0.0994
AAGGTCACTTGGGTTCTAACCTGTTGCCT (site AAGGTCACTAG)	2.24
AAGGTCACTTGGGTTCTAACCTGTTGCCT (site ACGGTCACTAG)	0.816
AAGGTCACTTGGGTTCTAACCTGTTGCCT (site AGGGTCACTAG)	0.0802
AAGGTCACTTGGGTTCTAACCTGTTGCCT (site ATGGTCACTAG)	0.361
AAGGTCACTTGGGTTCTAACCTGTTGCTG (site AAGGTCACTCA)	2.52
AAGGTCACTTGGGTTCTAACCTGTTGCTG (site GTACATCCTAC)	0.0968
AAGTCCACTTGGGTTCTAACCTGTTGCCT (site AAGTCCACTAG)	0.934
AAGTCCACTTGGGTTCTAACCTGTTGCCT (site ATTTCCACTAG)	0.027
AAGTCTCCTTGGGTTCTAACCTGTTGCAG (site AAGTCTCCTCT)	0.174
AAGTCTCCTTGGGTTCTAACCTGTTGCAG (site GCAATATCTAG)	0.116
